Peptide text beside a SMILES is read from it. * marks the point of attachment. Cbz = O=C(OCc1ccccc1)*
Experiments:
[1] = test system: polarized human bronchial epithelial cells; type: cell-based
Description: Primary culture of human bronchial epithelia and reagents utilized. Primary human airway epithelial cells were collected by enzymatic digestion of bronchial samples from lung transplants, as previously described (Kondo et al., 1991; Zabner et al., 1996). Isolated primary airway cells were seeded at a density of 5×10^5 cells/cm^2 onto collagen-coated Millicell-HA culture inserts (Millipore Corp., Bedford, Mass.). Primary cultures were grown at the air-liquid interface for more than 2 weeks, by which time differentiation into a mucociliary epithelium occurs. The culture medium, used to feed only the basolateral side of the cells, contained 49% DMEM, 49% Ham's F12 and 2% Ultraser G (BioSepra, Cedex, France). Dimethyl Sulphoxide (DMSO), camptothecin (Camp), etoposide (Etop), aphidicolin (Aphi), hydroxyurea (HU) and genistein (Geni) were purchased from Sigma (St. Louis, Mo.). Tripeptidyl aldehyde proteasome inhibitors N-Acetyl-L-Leucyl-L-Leucyl-Norleucine (LLnL) and benzyloxycarbonyl-L-leucyl-L-leucyl-L-leucinal (Z-LLL) were purchased from Calbiochem-Novabiochem Corporation (La Jolla, Calif.). Ubiquitin ligase (E3) inhibitors were obtained from Bachem Bioscience Inc. (King of Prussia, Pa.). Anti-AAV capsid monoclonal antibody (Anti-VP1, 2 and 3) was purchased from American Research Products (Belmont, Mass.) and anti-ubiquitin antibody was purchased from Santa Cruz Biotechnology Inc. (Santa Cruz, Calif.).
Transduction of polarized airway epithelial cells and primary human fibroblasts. rAAV infection of fully differentiated bronchial cells was performed as described in Duan et al. (1998). For infections from the apical surface of the airway cells, 5 μl rAAV was mixed with 50 μl of culture media and applied directly onto the apical compartment of Millicell inserts (MOI=10,000 particles/cell). During apical infection, the basolateral side of the Millicell was continuously bathed in culture media. Gene transfer to the basal side was performed by inverting Millicell inserts and applying viral vector to the bottom of the supporting filter membrane in a 50 μl volume for 2 hours. Subsequently, Millicell inserts were returned to the upright position, in the continued presence of the original viral inoculum plus an additional 450 μl of media. For both apical and basolateral infections, rAAV containing media was removed after 24 hours and replaced with either fresh culture media (for the basal side) or exposed to air (for the apical side). To test the effect of different agents on the efficiency of AAV transduction in polarized airway cells, 1 μl of each solution was mixed with AAV prior to infection of airway epithelia. Agents were usually presented during the 24 hours AAV infection period unless indicated otherwise. Most of the agents were dissolved in DMSO except for hydroxyurea (dissolved in phosphate buffered saline), H-Leu-Ala-OH (dissolved in 0.9% glacial acetic acid) and H-His-Ala-OH (dissolved in 50% methanol). The working concentrations of the agents were as follows: 0.1 μM camptothecin, 10 μM etoposide, 5 μg/ml aphidicolin, 40 mM hydroxyurea, 50 μM genistein, 40 μM LLnL and 4 μM Z-LLL. When the ubiquitin ligase (E3) inhibitors (H-Leu-Ala-OH and H-His-Ala-OH) were used, airway cells were pretreated with a combination of both inhibitors at a final concentration of 2 mM for 60 minutes prior to infection, followed by the continued presence of inhibitor (0.2 mM) during the entire 24 hours infection period from the basolateral surface. Studies involving EGTA treatment were performed by transiently treating the apical membrane of polarized airway epithelia with 3 mM EGTA in water for 10 minutes (Duan et al., 1998). Following hypotonic EGTA treatment, cultures were washed twice with culture medium and infected with rAAV in the presence or absence of 40 μM LLnL. Human primary fibroblast cells (P4) were maintained in 10% fetal bovine serum (FBS), 1% penicillin and streptomycin, and 89% DMEM. […]

[2] = test system: HeLa cells; assay: AV2eGFP versus scAV2eGFP expression in Hela cells with hydroxyurea; type: cell-based; settings: 5 mM pretreatment; 24 hours post-infection
Description: A set of viral vectors was prepared of half-genome length was prepared. Four GFP-based viruses were generated for this analysis (AV2eGFP, scAV2eGFP, AV2/5eGFP, and scAV2/5eGFP that had either 4.7 kb or 2.4 kb length genomes packaged into AAV2 or AAV5 capsids. The data AAV2 capsid viruses were identical to data for rAAV5 viruses. Functional confirmation of scAAV/dsAAV structure was performed by analysis of gene conversion and gene expression rates in Hela cells, sensitivity of transduction in Hela cells to the DNA synthesis inhibitor hydroxyurea (HU), and by denaturing NaHO gel electrophoresis. Polarized airway epithelia were infected with the various vector constructs from the apical membrane in the presence and absence of applied LLnL at the time of infection. Gene expression was monitored by quantitative morphometry of GFP fluorescence at various post-infection time points.

[3] = Toxicity of proteasome inhibitors in mice; type: in vivo, mouse; settings: 10, 100, and 1000 fold higher effective doses; intra-tracheal and systemic (IV) delivery
Description: Long-term enhancement of rAAV transduction by proteasome inhibitor in vivo. To evaluate the potential utility of proteasome inhibitors for in vivo gene therapy, both the toxicity and efficacy of these agents for in vivo rAAV mediated gene transfer in the mouse lung was tested. To assess the toxicity of these proteasome inhibitors in mice, 10, 100, and 1000 fold higher effective doses of LLnL or Z-LLL were administered than used to induce gene transfer in polarized airway cells, using both intra-tracheal and systemic (IV) delivery. No toxicity was indicated by histologic evaluation of the lung and liver or was evidenced by the death of animals. To investigate whether these proteasome inhibitors could improve rAAV transduction in vivo, AV.LacZ (5×10^10 particles) was delivered either alone or in the presence of 400 μM Z-LLL by intranasal administration. Mouse lungs were harvested at 3, 10 and 150 days post-infection to evaluate short and long term effects. […] Targeted transgene expression was predominantly confined to the conducting airways, rather than in the parenchyma. Alveolar cells were rarely transduced. […] The range of transgene expression in distal and proximal airways was 0 to 4% and 5 to 18%, respectively.

[4] = test system: mouse lung airway epithelium; assay: AV.LacZ gene transfer to mouse lung with Z-LLL (nasal aspiration, X-gal morphometry); type: in vivo; settings: 400 μM Z-LLL; 3 and 10 days post infection
Description: In vivo studies in mice. Animal studies were performed in accordance with the institutional guidelines of the University of Iowa. To determine the effect of the proteasome inhibitor on AAV mediated gene transfer in mouse lung, 6 week-old BALB/c mice were lightly anesthetized using a methoxyflurane chamber. AV.LacZ (5×10^10 particles) was administered alone or with 400 μM Z-LLL in a 10 μl instillation by nasal aspiration as described by Walters et al. (2000). To prevent unforeseen toxicity of DMSO solvent, the proteasome inhibitor Z-LLL was dissolved in ethanol as a 40 mM stock solution and was included in the viral inoculum at 1% final concentration. Viral infection controls in the absence of Z-LLL also contained a 1% final concentration of ethanol. […] Lungs (N=3 for each condition) were embedded in OCT (optimal cutting temperature; Baxter, Warrendale, Pa.) and 15 μm serially sections were analyzed for gene transfer by calculating the percentage of positive cells in the airway epithelium. The diameter of the airway was recorded for classification (>360 μm, 260-350 μm, 160-250 μm, <150 μm) of results following morphometric analysis. Greater than 150 airway cross-sections were quantified for each experimental condition.

[5] = test system: mouse lung; assay: AV2Luc / AV2/5Luc gene transfer to BL6 mouse lung with Z-LLL and/or Dox; type: in vivo; settings: 200 μM

SMILES	rAAV transduction from the apical surface ([1]; apical infection, data not shown)	effect on gene expression from AV2eGFP and scAV2eGFP [2]	augmentation in transgene expression ([1]; applied to the serosal surface along with rAAV, 2 days post infection, LLnL 40 μM)	toxicity (histologic evaluation of lung and liver, death of animals) [3]	transgene expression (X-gal staining of lung) [4]	induction of transgene expression from AV2/5 vectors [5] [fold]
NC(=O)NO [hydroxyurea]	none of these agents facilitated rAAV transduction from the apical surface	significantly decreased gene expression from AV2eGFP but not scAV2eGFP virus	–	–	–	–
CC(C)C[C@@H](C=O)NC(=O)[C@H](CC(C)C)NC(=O)[C@H](CC(C)C)NC(=O)OCc1ccccc1 [Z-LLL, N-carbobenzoxyl-L-leucinyl-L-leucinyl-L-leucinal] (Cbz-Leu-Leu-Leu-aldehyde)	–	–	A similar result was achieved	No toxicity	no detectable transgene expression	10

From patent publication US7749491B2, “Compounds and methods to enhance rAAV transduction” (priority 2003, dated 2010)
